The test addresses T1, GABA A α5 (Homo sapiens, UniProt P18507+P31644).
T1 construct: expressed in transfected cells; host or cells: HEK293 cells, transiently transfected; membranes prepared from cell pellets
The test is described as follows: [3H]flumazenil competition binding, human GABA A α5β3γ2 receptors in HEK293 cell membranes. As to conditions: human receptor α5β3γ2 transiently transfected in HEK293; 0.5 nM [3H]flumazenil; 1 hour at 4° C.; means of two determinations; read-out: hKi GABA A α5. As to the method: The affinity of compounds at GABA A receptor subtypes was measured by competition for [3H]flumazenil (85 Ci/mmol; Roche) binding to HEK293 cells expressing rat (stably transfected) or human (transiently transfected) receptors of composition α1β3γ2, α2β3γ2, α3β3γ2 and α5β3γ2.
Cell pellets were suspended in Krebs-tris buffer (4.8 mM KCl, 1.2 mM CaCl2, 1.2 mM MgCl2, 120 mM NaCl, 15 mM Tris; pH 7.5; binding assay buffer), homogenized by polytron for ca. 20 sec on ice and centrifuged for 60 min at 4° C. (50000 g; Sorvall, rotor: SM24=20000 rpm). The cell pellets were re-suspended in Krebs-tris buffer and homogenized by polytron for ca. 15 sec on ice. Protein was measured (Bradford method, Bio-Rad) and aliquots of 1 mL were prepared and stored at −80° C.
Assays were incubated to equilibrium for 1 hour at 4° C. and harvested onto GF/C uni-filters (Packard) by filtration using a Packard harvester and washing with ice-cold wash buffer (50 mM Tris; pH 7.5). After drying, filter-retained radioactivity was detected by liquid scintillation counting. Ki values were calculated using Excel-Fit (Microsoft) and are the means of two determinations.

Regarding `CCCCc1noc(C)c1COc1cc(C(=O)NC2CCOC2)[nH]n1` (single isomer, unassigned; (+)) [Example 35, (+)-(R or S)-3-((3-Butyl-5-methylisoxazol-4-yl)methoxy)-N-(tetrahydrofuran-3-yl)-1H-pyrazole-5-carboxamide], the Ki was 0.006 µM.
Next, `Cc1onc(-c2ccccn2)c1CNc1cc(C(=O)NC2(C)COC2)n(C)n1` [Example 162, 1-Methyl-3-((5-methyl-3-(pyridin-2-yl)isoxazol-4-yl)methylamino)-N-(3-methyloxetan-3-yl)-1H-pyrazole-5-carboxamide]: 0.0303 µM.
Next, `Cc1onc(-c2ccc(F)cc2)c1CNc1cc(C(=O)N2CC3(COC3)C2)[nH]n1` [Example 158, (5-{[3-(4-Fluoro-phenyl)-5-methyl-isoxazol-4-ylmethyl]-amino}-2H-pyrazol-3-yl)-(2-oxa-6-aza-spiro[3.3]hept-6-yl)-methanone]: 0.022 µM; `Cc1onc(-c2ccc(F)cn2)c1CNc1cc(C(=O)N2CC3(COC3)C2)n(C)n1` [Example 168, (3-((3-(5-Fluoropyridin-2-yl)-5-methylisoxazol-4-yl)methylamino)-1-methyl-1H-pyrazol-5-yl)(2-oxa-6-azaspiro[3.3]heptan-6-yl)methanone]: 0.0777 µM; `Cc1onc(-c2ccc(F)cc2)c1/C=C/c1cc(C(=O)NCC(C)(C)O)n(C)n1` [Example 124, 5-{(E)-2-[3-(4-Fluoro-phenyl)-5-methyl-isoxazol-4-yl]vinyl}-2-methyl-2H-pyrazole-3-carboxylic acid (2-hydroxy-2-methyl-propyl)-amide]: 0.002 µM.
The value for `Cc1onc(-c2ccc(F)cc2)c1CNc1cc(C(=O)NC(C)CO)n(C)n1` (centres unmarked) [Example 150, 5-{[3-(4-Fluoro-phenyl)-5-methyl-isoxazol-4-ylmethyl]-amino}-2-methyl-2H-pyrazole-3-carboxylic acid (2-hydroxy-1-methyl-ethyl)-amide] was 0.0262 µM; that for `Cc1onc(-c2ccc(F)cn2)c1CNc1cc(C(=O)NC(C)C)n(C)n1` [Example 163, 3-((3-(5-Fluoropyridin-2-yl)-5-methylisoxazol-4-yl)methylamino)-N-isopropyl-1-methyl-1H-pyrazole-5-carboxamide] was 0.0995 µM; that for `Cc1onc(-c2ccc(F)cn2)c1COc1cc(C(=O)NC(C)(C)C)[nH]n1` [Example 19, 5-[3-(5-Fluoro-pyridin-2-yl)-5-methyl-isoxazol-4-ylmethoxy]-2H-pyrazole-3-carboxylic acid tert-butylamide] was 0.0178 µM.
With `Cc1onc(-c2ccccc2)c1COc1cc(C(=O)NC2CCOC2)[nH]n1` (racemic) [Example 4, Rac-5-(5-Methyl-3-phenyl-isoxazol-4-ylmethoxy)-2H-pyrazole-3-carboxylic acid (tetra-hydro-furan-3-yl)-amide], the Ki was determined as 0.0066 µM.
As to `CCCCc1noc(C)c1COc1cc(C(=O)NCC(F)(F)F)[nH]n1` [Example 31, 5-(3-Butyl-5-methyl-isoxazol-4-ylmethoxy)-2H-pyrazole-3-carboxylic acid (2,2,2-trifluoro-ethyl)-amide], the Ki is 0.0064 µM.
Turning to `Cn1nc(OCc2c(-c3ccc(F)cc3)noc2CO)cc1C(=O)NC1CCOC1` (racemic) [Example 97, Rac-5-[3-(4-fluoro-phenyl)-5-hydroxymethyl-isoxazol-4-ylmethoxy]-2-methyl-2H-pyrazole-3-carboxylic acid (tetrahydro-furan-3-yl)-amide], the Ki is 0.0045 µM.
Next, `Cc1onc(-c2ccc(F)cc2)c1COc1cc(C(=O)N[C@H](C)CO)n(C)n1` (single isomer, unassigned) [Example 76, (−)-5-[3-(4-Fluoro-phenyl)-5-methyl-isoxazol-4-ylmethoxy]-2-methyl-2H-pyrazole-3-carboxylic acid ((S)-2-hydroxy-1-methyl-ethyl)-amide or 5-[3-(4-fluoro-phenyl)-5-methyl-isoxazol-4-ylmethoxy]-2-methyl-2H-pyrazole-3-carboxylic acid ((R)-2-hydroxy-1-methyl-ethyl)-amide or enantiomer]: 0.0108 µM; `Cc1onc(-c2ccc(F)cc2)c1COc1cc(C(=O)NCC(C)(C)CO)n(C)n1` [Example 65, 5-[3-(4-Fluoro-phenyl)-5-methyl-isoxazol-4-ylmethoxy]-2-methyl-2H-pyrazole-3-carboxylic acid (3-hydroxy-2,2-dimethyl-propyl)-amide]: 0.0058 µM; `Cc1onc(-c2ccc(F)cc2)c1CNc1cc(C(=O)NC(C)C)[nH]n1` [Example 154, 5-{[3-(4-Fluoro-phenyl)-5-methyl-isoxazol-4-ylmethyl]-amino}-2H-pyrazole-3-carboxylic acid isopropylamide]: 0.013 µM.
Take `CCCCc1noc(CO)c1COc1cc(C(=O)NCC(F)(F)F)n(C)n1` [Example 112, 5-(3-Butyl-5-hydroxymethyl-isoxazol-4-ylmethoxy)-2-methyl-2H-pyrazole-3-carboxylic acid (2,2,2-trifluoro-ethyl)-amide]: the Ki was found to be 0.0451 µM.
Consider `Cc1onc(-c2ccc(F)cc2)c1/C=C/c1cc(C(=O)NCC(C)(C)O)[nH]n1` [Example 140, 5-{(E)-2-[3-(4-Fluoro-phenyl)-5-methyl-isoxazol-4-yl]vinyl}-2H-pyrazole-3-carboxylic acid (2-hydroxy-2-methyl-propyl)-amide], for which the Ki was 0.0038 µM.
In the case of `Cc1onc(-c2ccccc2)c1COc1cc(C(N)=O)[nH]n1` [Example 7, 5-(5-Methyl-3-phenyl-isoxazol-4-ylmethoxy)-2H-pyrazole-3-carboxylic acid amide], the Ki turned out to be 0.0363 µM.
In the case of `Cc1onc(-c2ccccc2)c1COc1cc(C(=O)NCCO)n(C)n1` [Example 42, 2-Methyl-5-(5-methyl-3-phenyl-isoxazol-4-ylmethoxy)-2H-pyrazole-3-carboxylic acid (2-hydroxy-ethyl)-amide], the Ki is 0.0159 µM.
For `Cn1ccc(NC(=O)c2cc(OCc3c(-c4ccc(F)cc4)noc3CO)nn2C)n1` [Example 96, 5-[3-(4-Fluoro-phenyl)-5-hydroxymethyl-isoxazol-4-ylmethoxy]-2-methyl-2H-pyrazole-3-carboxylic acid (1-methyl-1H-pyrazol-3-yl)-amide], the Ki stood at 0.0427 µM.
Next, `Cc1onc(-c2ccc(F)cc2)c1CNc1cc(C(=O)NC(C)CO)[nH]n1` (centres unmarked) [Example 157, 5-{[3-(4-Fluoro-phenyl)-5-methyl-isoxazol-4-ylmethyl]-amino}-2H-pyrazole-3-carboxylic acid (2-hydroxy-1-methyl-ethyl)-amide]: 0.051 µM.
The value for `CCNC(=O)c1cc(/C=C/c2c(-c3ccc(F)cc3)noc2C)n[nH]1` [Example 141, 5-{(E)-2-[3-(4-Fluoro-phenyl)-5-methyl-isoxazol-4-yl]vinyl}-2H-pyrazole-3-carboxylic acid ethylamide] was 0.0081 µM; that for `Cc1onc(-c2ccc(F)cc2)c1/C=C/c1cc(C(N)=O)n(C)n1` [Example 126, 5-{(E)-2-[3-(4-Fluoro-phenyl)-5-methyl-isoxazol-4-yl]vinyl}-2-methyl-2H-pyrazole-3-carboxylic acid amide] was 0.0015 µM; that for `Cn1nc(OCc2c(-c3ccc(Cl)cc3)noc2CO)cc1C(=O)NC1CC1` [Example 105, 5-[3-(4-Chloro-phenyl)-5-hydroxymethyl-isoxazol-4-ylmethoxy]-2-methyl-2H-pyrazole-3-carboxylic acid cyclopropylamide] was 0.0054 µM.

The values are drawn from US8163728B2, “Pyrazoles” (Hoffmann-La Roche Inc., priority 2009, dated 2012).
